Measured values reported in patent US20200060276A1, “THIAZOLE COMPOUND AND HERBICIDE” (OAT Agrio Co., Ltd., priority 2017, published 2020).

What was measured:
Format in all cases: in vivo
Digitaria ciliaris = assay: Test for Herbicidal Effect in Soil Treatment (#3); details: 504 h, dose of 2 kg/ha, day 21, visual observation, read-out: growth inhibition effect
Text: 0: Growth inhibition effect is less than 10%. 1: Growth inhibition effect is equal to or greater than 10%, and less than 30%. 2; Growth inhibition effect is equal to or greater than 30%, and less than 50%. 3: Growth inhibition effect equal to or greater than 50%, and less than 70%. 4: Growth inhibition effect is equal to or greater than 70%, and less than 90%. 5: Growth inhibition effect is equal to or greater than 90%, or complete withering is achieved. (#3) Test for Herbicidal Effect in Soil Treatment: Styrol cups each having an opening diameter of 8 cm (about 52 cm^2) were respectively filled with soil (45 ml) which had been passed through a sieve (2 mm). Water (about 115 ml) was added. Thereafter, Digitaria ciliaris was seeded. Each of the compounds of the present invention was dissolved in acetone, and the obtained product was then diluted with water containing Tween 80°. Each of the resultant chemical solutions was dropped on the entire surface of an associated one of treatment sections, so that each section was treated with 1 ml of the respective chemical solution (a dose of 2 kg/ha). After the treatment, the plants were grown in a glasshouse. On day 21, a survey was conducted on the herbicidal activity by visual observation, and evaluation was made according to the following criteria. The herbicidal activity of the following comparative compounds A and B (the compounds disclosed Japanese Unexamined Patent Publication No. 2003-096059) were evaluated.

[1] = system: Echinochloa crus-galli (L.) P. Beauv. var. formosensis Ohwi; assay: Test for Herbicidal Effect in Flooding Treatment (#2), ECHDG at 2-2.5 leaf stage; details: for inhibition at 200 g/ha: Echinochloa crus-galli, 504 h, flooding treatment (#2), ECHDG at 2-2.5 leaf stage, dose of 0.2 kg/ha, day 21, visual observation, read-out: growth inhibition effect; for ECHDG (2-2.5L) #2 herbicidal effect (growth inhibition grade): flooding treatment at 2-2.5 leaf stage, dose 0.2 kg/ha, visual observation on day 21
Outline: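 Flooded muddy soil was seeded with the weed, and at 2–2.5 leaf stage compound in acetone/Tween 80 water was dropped on the water surface at 0.2 kg/ha. Plants were kept in a glasshouse and scored visually on day 21 from 0 (<10% growth inhibition) to 5 (≥90% or complete withering).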

Scirpus juncoides = assay: Test for Herbicidal Effect in Flooding Treatment (#1), SCIJU; details: flooding treatment at seeding, dose 2 kg/ha, visual observation on day 21
Outline: (§1)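 Visual scores from 0 (<10% inhibition) to 5 (≥90% or complete withering) were taken 21 days after treatment of glasshouse-grown plants. Seeds were sown in soil flooded for 24 h beforehand, and compound was applied dropwise onto the surface at 2 kg/ha as an acetone solution diluted in water with Tween 80.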

[2] = system: Echinochloa crus-galli (L.) P. Beauv. var. formosensis Ohwi; assay: Test for Herbicidal Effect in Flooding Treatment (#1), ECHDG; details: flooding treatment at seeding, dose 2 kg/ha, visual observation on day 21
Outline: as §1

Cyperus microiria = assay: Test for Herbicidal Effect in Flooding Treatment (#1), CYMIC; details: flooding treatment at seeding, dose 2 kg/ha, visual observation on day 21
Outline: as §1

Monochoria vaginalis = assay: Test for Herbicidal Effect in Flooding Treatment (#1), MONVA; details: flooding treatment at seeding, dose 2 kg/ha, visual observation on day 21
Outline: as §1

Row | SMILES | inhibition at 2000 g/ha (Digitaria ciliaris) | inhibition at 200 g/ha [1] | SCIJU #1 herbicidal effect (growth inhibition grade) (Scirpus juncoides) | ECHDG #1 herbicidal effect (growth inhibition grade) [2] | CYMIC #1 herbicidal effect (growth inhibition grade) (Cyperus microiria) | ECHDG (2-2.5L) #2 herbicidal effect (growth inhibition grade) [1] | MONVA #1 herbicidal effect (growth inhibition grade) (Monochoria vaginalis)
1 | O=S(=O)(Cc1ccccc1Cl)c1ncc(Cl)s1 [comparative compound B, reference compound] | 30 to 50% | 30 to 50% |  |  |  |  | 
2 | CCOc1ccc(F)cc1CS(=O)(=O)c1ncc(Cl)s1 [Compound 1C-15] | ≥ 50% |  | 5 (Growth inhibition effect is equal to or greater than 90%, or complete withering is achieved) | 5 (Growth inhibition effect is equal to or greater than 90%, or complete withering is achieved) | 5 (Growth inhibition effect is equal to or greater than 90%, or complete withering is achieved) | 5 (Growth inhibition effect is equal to or greater than 90%, or complete withering is achieved) | 
3 | CCOc1cc(F)c(F)cc1CS(=O)(=O)c1ncc(Cl)s1 [Compound 1C-29] | ≥ 50% |  | 5 (Growth inhibition effect is equal to or greater than 90%, or complete withering is achieved) | 5 (Growth inhibition effect is equal to or greater than 90%, or complete withering is achieved) | 5 (Growth inhibition effect is equal to or greater than 90%, or complete withering is achieved) | 5 (Growth inhibition effect is equal to or greater than 90%, or complete withering is achieved) | 5 (Growth inhibition effect is equal to or greater than 90%, or complete withering is achieved)
4 | O=S(=O)(Cc1c(Cl)cccc1OCC(F)(F)F)c1ncc(Br)s1 [Compound 1C-161, 5-bromo-2-{[2-(2,2,2-trifluoroethoxy)-6-chlorophenyl][methanesulfonyl]}-1,3-thiazole] | ≥ 50% |  | 5 (Growth inhibition effect is equal to or greater than 90%, or complete withering is achieved) | 5 (Growth inhibition effect is equal to or greater than 90%, or complete withering is achieved) |  | 5 (Growth inhibition effect is equal to or greater than 90%, or complete withering is achieved) | 
5 | CCOc1cc(F)c(CS(=O)(=O)c2ncc(Cl)s2)cc1F [Compound 1C-101, 5-chloro-2-[(2,5-difluoro-4-ethoxyphenyl)(methanesulfonyl)]-1,3-thiazole] | ≥ 50% |  | 5 (Growth inhibition effect is equal to or greater than 90%, or complete withering is achieved) | 5 (Growth inhibition effect is equal to or greater than 90%, or complete withering is achieved) | 5 (Growth inhibition effect is equal to or greater than 90%, or complete withering is achieved) | 5 (Growth inhibition effect is equal to or greater than 90%, or complete withering is achieved) | 5 (Growth inhibition effect is equal to or greater than 90%, or complete withering is achieved)
6 | CCOc1c(F)cccc1CS(=O)(=O)c1ncc(Cl)s1 [Compound 1C-9] | ≥ 50% |  | 5 (Growth inhibition effect is equal to or greater than 90%, or complete withering is achieved) | 5 (Growth inhibition effect is equal to or greater than 90%, or complete withering is achieved) | 5 (Growth inhibition effect is equal to or greater than 90%, or complete withering is achieved) | 5 (Growth inhibition effect is equal to or greater than 90%, or complete withering is achieved) | 
7 | O=S(=O)(Cc1ccccc1OC(F)F)c1ncc(Cl)s1 [Compound 1C-38] | ≥ 90% | ≥ 90% | 5 (Growth inhibition effect is equal to or greater than 90%, or complete withering is achieved) | 5 (Growth inhibition effect is equal to or greater than 90%, or complete withering is achieved) | 5 (Growth inhibition effect is equal to or greater than 90%, or complete withering is achieved) | 5 (Growth inhibition effect is equal to or greater than 90%, or complete withering is achieved) | 5 (Growth inhibition effect is equal to or greater than 90%, or complete withering is achieved)
8 | O=S(=O)(Cc1c(F)cccc1OC(F)F)c1ncc(Cl)s1 [Compound 1C-41, 5-chloro-2-{[2-(difluoromethoxy)-6-fluorophenyl][methanesulfonyl]}-1,3-thiazole] | ≥ 90% | ≥ 90% | 5 (Growth inhibition effect is equal to or greater than 90%, or complete withering is achieved) | 5 (Growth inhibition effect is equal to or greater than 90%, or complete withering is achieved) |  | 5 (Growth inhibition effect is equal to or greater than 90%, or complete withering is achieved) | 5 (Growth inhibition effect is equal to or greater than 90%, or complete withering is achieved)
9 | O=S(=O)(Cc1ccccc1F)c1ncc(Cl)s1 [comparative compound A, reference compound] | 30 to 50% | 10 to 30% |  |  |  |  | 
10 | CCOc1c(C)ccc(C)c1CS(=O)(=O)c1ncc(Cl)s1 [Compound 1C-28] |  |  | 5 (Growth inhibition effect is equal to or greater than 90%, or complete withering is achieved) | 5 (Growth inhibition effect is equal to or greater than 90%, or complete withering is achieved) | 5 (Growth inhibition effect is equal to or greater than 90%, or complete withering is achieved) | 5 (Growth inhibition effect is equal to or greater than 90%, or complete withering is achieved) | 5 (Growth inhibition effect is equal to or greater than 90%, or complete withering is achieved)
